Tests used:
[1] = target: T1, human M4 receptor (Homo sapiens, UniProt P08173); experiment: M4 GTPγS PAM assay (CHO-K1 membranes, 35S-GTP binding, with EC20 acetylcholine); format: biochemical; conditions: with EC20 acetylcholine (40 nM)
T1 construct: expressed in transfected cells; host or cells: CHO-K1 cells (membranes)
T1 sequence (P08173 1-479): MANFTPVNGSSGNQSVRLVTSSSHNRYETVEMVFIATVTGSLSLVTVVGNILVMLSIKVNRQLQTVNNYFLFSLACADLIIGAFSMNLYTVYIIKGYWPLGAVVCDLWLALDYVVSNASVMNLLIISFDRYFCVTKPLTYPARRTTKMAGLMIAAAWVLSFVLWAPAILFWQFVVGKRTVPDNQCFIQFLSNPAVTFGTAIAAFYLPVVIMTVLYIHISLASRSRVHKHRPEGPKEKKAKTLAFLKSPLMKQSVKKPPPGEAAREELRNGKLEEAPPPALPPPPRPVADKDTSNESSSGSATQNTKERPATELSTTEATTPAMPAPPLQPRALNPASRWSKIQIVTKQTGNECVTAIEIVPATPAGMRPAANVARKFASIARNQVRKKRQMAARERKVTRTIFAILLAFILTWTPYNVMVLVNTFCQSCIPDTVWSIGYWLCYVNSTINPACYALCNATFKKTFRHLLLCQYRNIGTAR
Experimental: The M4 GTPγS PAM method was used. Membranes were prepared for GTPgS binding assays from CHO-K1 cells stably expressing human M4 receptor. Briefly, cells were grown in 5-layer cell culture flasks. Cells were washed with 50 mL of PBS and then dissociated with 0.05% trypsin. Dissociated cells were then collected by centrifugation at 650×g for 8 minutes at 4° C. Pellets were washed again in PBS by centrifugation and resuspended in 30 mL of 20 mM HEPES, 10 mM EDTA, pH 7.4. After sitting on ice for 30 min, membranes were collected by centrifugation at 50000×g for 15′ at 4° C., resuspended in 30 mL of 20 mM HEPES, 0.1 mM EDTA, pH 7.4 and collected again by centrifugation. Pellets were then washed twice by centrifugation in 30 mL of 20 mM HEPES, pH 7.4, and stored at −80° C. until the day of the assay. On the day of the assay, pellets were thawed on ice and resuspended in 1 mL of 20 mM HEPES, pH 7.4, 10 mM MgCl2, 100 mM NaCl using dounce homogenization. Membrane protein concentration is determined by BCA protein assay (Promega, Madison, WI) according to Promega guidelines.
On the day of the assay, serial dilutions of test PAM compounds were brought up in assay buffer (20 mM HEPES, 10 mM MgCl2, 100 mM NaCl) at 4X final assay concentration. […] of membrane homogenates (containing […] of membrane protein) were prepared in assay buffer supplemented with GDP at […] final assay concentration (final assay concentration of GDP is 5 μM for M2 and 0.1 μM for M4) and dispensed into 96 well polypropylene, U-bottom Greiner plates. 25 ml of vehicle or test PAM compound at 4× of final assay concentration diluted in the assay buffer were added to membrane and plates are incubated for 10-15 minutes at room temperature with gentle shaking. Then, […] of EC20 acetylcholine in assay buffer at 4× final assay concentration was added to assay plates (EC20 final assay concentrations was 40 nM for human M4).
Plates were then incubated, with shaking, for an additional 10-15 minutes. […] of 0.4 nM 35S-GTP (Perkin Elmer, Waltham, MA) in assay buffer was added to assay mixtures. The binding reaction is left on the shaker for 1 hour at room temperature. Membranes in assay reactions were then transferred to GF/C filter plates (Unifilter, Perkin Elmer) and washed three times using a FilterMate Harvester (Perkin Elmer) with cold assay buffer containing no GDP. Filter plates were then dried at 40° C. overnight followed by the addition of […] of Beta Plate Scintillation liquid. Plates are top and bottom sealed before being read on TopCount scintillation counter (Perkin Elmer, Waltham, MA).

[2] = target: T2, rM4 receptors (Rattus norvegicus, UniProt P08485); experiment: Rat M4 PAM PERK assay (CHO cells, TR-FRET, with EC20 acetylcholine); format: cell-based
T2 construct: expressed in transfected cells; host or cells: CHO cells
T2 sequence (P08485 1-478): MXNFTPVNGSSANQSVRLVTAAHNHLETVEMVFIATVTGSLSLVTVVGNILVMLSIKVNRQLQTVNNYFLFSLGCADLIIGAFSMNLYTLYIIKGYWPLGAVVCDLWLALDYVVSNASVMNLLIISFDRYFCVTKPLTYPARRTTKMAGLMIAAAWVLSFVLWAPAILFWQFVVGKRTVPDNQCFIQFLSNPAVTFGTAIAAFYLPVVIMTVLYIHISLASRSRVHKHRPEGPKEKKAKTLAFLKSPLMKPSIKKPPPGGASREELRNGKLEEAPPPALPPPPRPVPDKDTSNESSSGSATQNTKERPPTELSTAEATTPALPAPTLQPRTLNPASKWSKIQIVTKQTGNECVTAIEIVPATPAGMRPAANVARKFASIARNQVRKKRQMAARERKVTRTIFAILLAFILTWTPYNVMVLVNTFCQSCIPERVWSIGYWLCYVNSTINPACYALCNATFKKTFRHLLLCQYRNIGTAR
Experimental: (§1) Chinese hamster ovary (CHO) cells expressing either hM4 or rM4 receptors were frozen in assay ready vials (5×10^6 cells/vial) after bulking-up in culture. The day before an assay, vial(s) were thawed and cells seeded in 384 well white proxiplates at 1000/well for hM4 cells and at 2000/well for rM4 cells, in 10 μL of growth media (Hams/F12 with glutamax and 10% FCS) and incubated overnight at 37° C./5% CO2.
(§2) On the following morning, the growth media was removed by ‘flicking out’ over a bin, patting the inverted plate onto tissue, and then replacing with 10 μL of wash media (Hams/F12 with glutamax and 8 mM HEPES, NB: serum free). Then, the wash media was removed in the same way and replaced with 8 μL/well of the serum free media. Plates were then re-incubated for a further 4 hours at 37° C./5% CO2.
(§3) Compounds for testing were solubilized to 10 mM in DMSO and compound addition plates, consisting of ten-point concentration response curves (CRC) in duplicate points (10 μM top concentration, ½ log dilution series), were prepared by acoustic dispensing and the compound management group.
(§4) After the 4-hour incubation in serum free media, a 4 μL aliquot of the 3×compound solution containing an EC20 of acetylcholine (10 nM final concentration) was added to the cell plate using a 384 well plate to plate transfer. Then, the plate lid was replaced, and the cells incubated for 5 mins at 37° C./5% CO2. Following this final incubation, all cellular processes were stopped by the addition of 4 μL/well of lysis and blocking buffer and plates were incubated for 30 minutes at RT on an orbital shaker (gentle setting). Then, a final addition of 4 μL/well of antibody detection mix, containing both the Europium-Cryptate (donor) and d2 (acceptor) tagged detection components, was added followed by a further 2-hour incubation at RT, and then the plate was read using a TR-FRET (time resolved fluorescence resonance energy transfer) based protocol.

[3] = target: T3, hM4 receptors (Homo sapiens, UniProt P08173); experiment: Human M4 PAM PERK assay (CHO cells, TR-FRET, with EC20 acetylcholine); format: cell-based
T3 construct: expressed in transfected cells; host or cells: CHO cells
T3 sequence (P08173 1-479): T1 sequence (P08173 1-479)
Experimental: as §1, §2, §3, §4

Row | SMILES | EC50 [1] [µM] | EC50 [2] [µM] | EC50 [3] [µM]
1 | Cc1cc(=O)n(C)c2c1CN(C(=O)CC1CN(c3ccnc(C(F)(F)F)n3)C1)C2 [Compound I-23] | 0.2 to 1 | 0.2 to 1 | 0.2 to 1
2 | Cc1c2c(n(C)c(=O)c1Cl)CN(C(=O)CC1CN(c3ccc(C(F)(F)F)nc3)C1)C2 [Compound I-78] | 0.05 to 0.2 | 0.05 to 0.2 | < 0.05
3 | Cc1c2c(n(C)c(=O)c1C)CN(C(=O)CC1CN(c3ncns3)C1)C2 [Compound I-44] | 0.05 to 0.2 | 0.2 to 1 | < 0.05
4 | Cc1c2c(n(C)c(=O)c1C)CN(C(=O)CC1CN(c3ccc(C#N)cc3)C1)C2 [Compound I-45] | < 0.05 | 0.05 to 0.2 | < 0.05
5 | Cc1cc(=O)n(C)c2c1CN(C(=O)CC1CN(c3ccnc(C4CC4)c3)C1)C2 [Compound I-22] | 0.2 to 1 | 0.2 to 1 | 0.05 to 0.2
6 | Cc1c2c(n(C)c(=O)c1Cl)CN(C(=O)CC1CN(c3ccc(F)cc3)C1)C2 [Compound I-79] | < 0.05 | 0.05 to 0.2 | < 0.05
7 | COc1cc(N2CC(CC(=O)N3Cc4c(C)cc(=O)n(C)c4C3)C2)cc(C(F)(F)F)n1 [Compound I-39, 6-(2-(1-(2-Methoxy-6-(trifluoromethyl)pyridin-4-yl)azetidin-3-yl)acetyl)-1,4-dimethyl-1,5,6,7-tetrahydro-2H-pyrrolo[3,4-b]pyridin-2-one] | 0.2 to 1 | 0.2 to 1 | 0.05 to 0.2
8 | Cc1cc(=O)n(C)c2c1CN(C(=O)CC1CN(c3ccc(C#N)c(C(F)(F)F)c3)C1)C2 [Compound I-27] | 0.05 to 0.2 | 0.05 to 0.2 | 0.05 to 0.2
9 | Cc1cc(=O)n(C)c2c1CN(C(=O)CC1CN(c3cnc(C(F)(F)F)nc3)C1)C2 [Compound I-21] | > 1 | 0.05 to 0.2 | 0.2 to 1
10 | Cc1c2c(n(C)c(=O)c1Cl)CN(C(=O)C(C)C1CN(c3ccnc(C(F)(F)F)c3)C1)C2 (single isomer, unassigned) [Compound I-82, 3-Chloro-1,4-dimethyl-6-(2-(1-(2-(trifluoromethyl)pyridin-4-yl)azetidin-3-yl)propanoyl)-1,5,6,7-tetrahydro-2H-pyrrolo[3,4-b]pyridin-2-one] | > 1 | > 1 | > 1
11 | Cc1cc(=O)n(C)c2c1[C@@H](C)N(C(=O)CC1CN(c3ccc(C(F)(F)F)cc3)C1)C2 [Compound I-117, (R)-1,4,5-trimethyl-6-(2-(1-(4-(trifluoromethyl)phenyl)azetidin-3-yl)acetyl)-1,5,6,7-tetrahydro-2H-pyrrolo[3,4-b]pyridin-2-one] | < 0.05 | 0.2 to 1 | 0.2 to 1
12 | Cc1cc(=O)n(C)c2c1CN(C(=O)CC1CN(c3ccc(F)cc3)C1)C2 [Compound I-11] | 0.2 to 1 | 0.2 to 1 | 0.2 to 1
13 | Cc1cc(=O)n(C)c2c1CN(C(=O)CC1CN(c3cnn(C4CC4)c3)C1)C2 [Compound I-37] | 0.2 to 1 | > 1 | 0.2 to 1
14 | Cc1cc(=O)n(C)c2c1C(C)N(C(=O)CC1CN(c3ccc(C(F)(F)F)cc3)C1)C2 (stereo not drawn) [Compound I-115] | 0.05 to 0.2 | 0.2 to 1 | 0.2 to 1
15 | Cc1c2c(n(C)c(=O)c1C)CN(C(=O)CC1CN(c3ccc(F)c(OC4CC4)c3)C1)C2 [Compound I-63, 6-(2-(1-(3-cyclopropoxy-4-fluorophenyl)azetidin-3-yl)acetyl)-1,3,4-trimethyl-1,5,6,7-tetrahydro-2H-pyrrolo[3,4-b]pyridin-2-one] | < 0.05 | 0.2 to 1 | 0.2 to 1
16 | Cc1cc(=O)n(C)c2c1CN(C(=O)CC1CN(c3nc(C(F)(F)F)cs3)C1)C2 [Compound I-31] | 0.2 to 1 | 0.05 to 0.2 | 0.05 to 0.2
17 | COc1cc(N2CC(CC(=O)N3Cc4c(C(F)(F)F)cc(=O)n(C)c4C3)C2)ccn1 [Compound I-92] | > 1 | > 1 | 0.2 to 1
18 | Cc1cc(=O)n(C)c2c1CN(C(=O)CC1CN(c3ccc(C#N)cc3)C1)C2 [Compound I-17] | 0.05 to 0.2 | 0.05 to 0.2 | < 0.05
19 | Cc1cc(=O)n(C)c2c1CN(C(=O)CC1CN(c3ccnc(OCC4CC4)c3)C1)C2 [Compound I-10] | 0.05 to 0.2 | 0.2 to 1 | < 0.05
20 | Cc1c2c(n(C)c(=O)c1F)CN(C(=O)CC1CN(c3ccc(C(F)(F)F)cc3)C1)C2 [Compound I-85] | < 0.05 | 0.05 to 0.2 | 0.05 to 0.2
21 | Cc1c2c(n(C)c(=O)c1C)CN(C(=O)CC1CN(c3ccc(F)c(C4CC4)c3)C1)C2 [Compound I-55] | 0.05 to 0.2 | 0.05 to 0.2 | 0.2 to 1
22 | Cc1cc(=O)n(C)c2c1CN(C(=O)CC1CN(c3ccc(OC(F)(F)F)cc3)C1)C2 [Compound I-12] | 0.05 to 0.2 | 0.2 to 1 | 0.2 to 1
23 | Cc1c2c(n(C)c(=O)c1C)CN(C(=O)CC1CN(c3ccc(C4CC4)c(F)c3)C1C)C2 (single isomer, unassigned) [Compound I-62] | 0.2 to 1 | 0.2 to 1 | 0.2 to 1
24 | Cc1c2c(n(C)c(=O)c1Cl)CN(C(=O)CC1CN(c3ncns3)C1)C2 [Compound I-80] | 0.05 to 0.2 | 0.2 to 1 | < 0.05
25 | Cc1cc(=O)n(C)c2c1CN(C(=O)CC1CN(c3cccnc3)C1)C2 [Compound I-3] | < 0.05 | 0.2 to 1 | 0.05 to 0.2

From patent US20260209220A1, “SUBSTITUTED TETRAHYDROPYRROLO-PYRIDINONE COMPOUNDS AND THEIR USE IN TREATING MEDICAL CONDITIONS” (Karuna Therapeutics, Inc., priority 2022, published 2026)
